According to ChEMBL document CHEMBL1133967, “New leads for selective inhibitors of alpha-L-fucosidases. Synthesis and glycosidase inhibitory activities of [(2R,3S,4R)-3,4-dihydroxypyrrolidin-2-yl]furan derivatives” (Bioorg Med Chem Lett, 2001):
Calls of active or inactive are those of the source. The calls are words filed in the database; no cut-off is given here.

Experiments:
[1] = Inhibitory concentration against Alpha-mannosidase of Jack bean; design: species or system Canavalia ensiformis
[2] = system: Canavalia ensiformis; assay: Percent inhibition against Alpha-mannosidase of Jack bean at 1 mM
[3] = system: Prunus dulcis; assay: Percent inhibition against Alpha-mannosidase of Almonds at 1 mM
[4] = molecular target: Glucoamylase (Aspergillus niger) (UniProt P69328); assay: Percent inhibition against Amyloglucosidase of Aspergillus niger at 1 mM
[5] = molecular target: Beta-galactosidase (Bos taurus, UniProt Q58D55); assay: Inhibitory concentration against Beta-D-galactosidase of bovine liver
[6] = molecular target: T1, Beta-galactosidase (Bos taurus) (UniProt Q58D55); assay: Percent inhibition against Beta-D-galactosidase of bovine liver at 1 mM
T1 sequence (whole entry): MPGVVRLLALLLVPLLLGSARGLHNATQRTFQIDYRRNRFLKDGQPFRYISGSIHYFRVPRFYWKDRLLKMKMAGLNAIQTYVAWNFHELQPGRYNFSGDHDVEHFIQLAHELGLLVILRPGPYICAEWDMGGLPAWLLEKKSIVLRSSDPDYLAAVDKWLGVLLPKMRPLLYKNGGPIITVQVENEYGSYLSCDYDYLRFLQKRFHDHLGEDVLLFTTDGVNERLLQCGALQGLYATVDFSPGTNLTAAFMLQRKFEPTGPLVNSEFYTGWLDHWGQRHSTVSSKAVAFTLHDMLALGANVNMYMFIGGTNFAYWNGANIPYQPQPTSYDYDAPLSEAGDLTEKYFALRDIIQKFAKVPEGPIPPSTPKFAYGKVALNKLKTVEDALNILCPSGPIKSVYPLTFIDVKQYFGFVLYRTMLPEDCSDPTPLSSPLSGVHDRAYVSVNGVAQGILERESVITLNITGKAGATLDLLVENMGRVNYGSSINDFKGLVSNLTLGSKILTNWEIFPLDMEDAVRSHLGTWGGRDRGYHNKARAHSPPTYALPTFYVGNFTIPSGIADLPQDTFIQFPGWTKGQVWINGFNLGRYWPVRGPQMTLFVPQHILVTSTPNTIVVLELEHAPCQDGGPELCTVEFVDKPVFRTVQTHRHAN

[7] = molecular target: T2, Beta-galactosidase (Aspergillus niger) (UniProt P29853); assay: Inhibitory activity against Beta-D-galactosidase of Aspergillus niger at 1 mM; No inhibition
T2 sequence (whole entry): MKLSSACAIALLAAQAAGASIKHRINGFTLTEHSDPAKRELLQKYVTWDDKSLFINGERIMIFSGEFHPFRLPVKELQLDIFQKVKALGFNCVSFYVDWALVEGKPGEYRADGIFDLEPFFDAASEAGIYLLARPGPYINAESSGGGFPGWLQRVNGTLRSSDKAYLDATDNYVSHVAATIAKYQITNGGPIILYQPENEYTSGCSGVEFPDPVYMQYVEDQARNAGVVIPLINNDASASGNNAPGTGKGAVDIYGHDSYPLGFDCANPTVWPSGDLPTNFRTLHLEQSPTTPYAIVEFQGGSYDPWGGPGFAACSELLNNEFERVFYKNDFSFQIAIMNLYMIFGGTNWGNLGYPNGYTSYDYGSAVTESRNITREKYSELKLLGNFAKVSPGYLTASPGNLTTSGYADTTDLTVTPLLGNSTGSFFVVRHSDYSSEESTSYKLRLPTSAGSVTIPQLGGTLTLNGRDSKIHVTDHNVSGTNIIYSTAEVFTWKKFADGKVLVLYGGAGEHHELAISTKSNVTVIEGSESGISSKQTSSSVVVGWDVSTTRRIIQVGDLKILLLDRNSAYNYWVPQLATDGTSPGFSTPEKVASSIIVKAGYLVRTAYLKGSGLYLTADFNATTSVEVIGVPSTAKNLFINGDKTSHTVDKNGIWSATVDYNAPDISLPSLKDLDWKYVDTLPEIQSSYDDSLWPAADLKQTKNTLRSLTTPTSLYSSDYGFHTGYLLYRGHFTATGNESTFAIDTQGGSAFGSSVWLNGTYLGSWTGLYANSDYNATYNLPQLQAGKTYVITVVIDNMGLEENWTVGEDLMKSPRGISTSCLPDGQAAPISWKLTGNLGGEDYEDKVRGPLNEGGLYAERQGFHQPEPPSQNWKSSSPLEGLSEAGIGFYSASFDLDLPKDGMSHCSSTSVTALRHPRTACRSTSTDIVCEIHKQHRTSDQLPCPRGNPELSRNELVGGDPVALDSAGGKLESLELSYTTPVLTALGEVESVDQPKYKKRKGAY

[8] = molecular target: Beta-galactosidase (Escherichia coli) (UniProt Q8VNN2); assay: Inhibitory activity against beta-D-Galactosidase of Escherichia coli at 1 mM; No inhibition
[9] = Inhibitory activity against Alpha-mannosidase of Jack bean expressed as Ki; design: species or system Canavalia ensiformis
[10] = molecular target: T3, Tissue alpha-L-fucosidase (Homo sapiens, UniProt P04066); assay: Inhibitory concentration against alpha-L-Fucosidase of human placenta
T3 sequence (P04066 whole entry): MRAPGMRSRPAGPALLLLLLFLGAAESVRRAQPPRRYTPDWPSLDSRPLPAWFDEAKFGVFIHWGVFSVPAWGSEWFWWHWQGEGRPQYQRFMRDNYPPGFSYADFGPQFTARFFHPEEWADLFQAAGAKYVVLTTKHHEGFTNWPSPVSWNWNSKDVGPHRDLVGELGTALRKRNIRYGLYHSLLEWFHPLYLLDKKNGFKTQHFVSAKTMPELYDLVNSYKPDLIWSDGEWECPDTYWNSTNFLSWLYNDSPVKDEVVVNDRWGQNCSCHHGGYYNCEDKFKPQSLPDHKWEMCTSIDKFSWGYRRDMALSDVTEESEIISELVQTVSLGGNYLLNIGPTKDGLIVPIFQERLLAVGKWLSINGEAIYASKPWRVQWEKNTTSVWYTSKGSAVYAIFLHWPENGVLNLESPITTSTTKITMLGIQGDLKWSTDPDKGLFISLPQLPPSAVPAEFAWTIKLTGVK

[11] = molecular target: T4, Tissue alpha-L-fucosidase (Homo sapiens) (UniProt P04066); assay: Percent inhibition against alpha-L-Fucosidase of human placenta at 1 mM
T4 sequence (whole entry): T3 sequence (P04066 whole entry)

[12] = molecular target: T3, Tissue alpha-L-fucosidase; assay: Inhibitory activity against alpha-L-Fucosidase of human placenta expressed as Ki
[13] = molecular target: Beta-galactosidase (Escherichia coli) (UniProt Q8VNN2); assay: Inhibitory activity against Beta-D-galactosidase of Escherichia coli at 1 mM; No inhibition
[14] = system: maltase (Oryza sativa); assay: Inhibitory activity against maltase of rice at 1 mM; No inhibition
[15] = system: maltase (Saccharomyces cerevisiae); assay: Inhibitory activity against maltase of yeast at 1 mM; No inhibition
[16] = system: Rhizopus; assay: Percent inhibition against Amyloglucosidase of Rhizopus mold at 1 mM
[17] = system: Coffea arabica; assay: Percent inhibition against Alpha-galactosidase of coffee bean at 1 mM
[18] = system: isomaltase (Saccharomyces cerevisiae); assay: Inhibitory activity against isomaltase of baker yeast at 1 mM; No inhibition
[19] = system: Prunus dulcis; assay: Inhibitory activity against Beta-glucosidase of almonds at 1 mM; No inhibition
[20] = system: Canavalia ensiformis; assay: Inhibitory activity against Beta-D-galactosidase of Jack bean at 1 mM; No inhibition
[21] = system: Helix pomatia; assay: Inhibitory activity against Beta-mannosidase of Helix pomatia at 1 mM; No inhibition
[22] = system: Escherichia coli; assay: Inhibitory activity against Alpha-galactosidase of Escherichia coli at 1 mM; No inhibition
[23] = system: Aspergillus niger; assay: Inhibitory activity against Alpha-galactosidase of Aspergillus niger at 1 mM; No inhibition
[24] = system: Beta-N-acetylglucosaminidase (Canavalia ensiformis); assay: Inhibitory activity against Beta-N-acetylglucosaminidase of Jack bean at 1 mM; No inhibition
[25] = system: Aspergillus oryzae; assay: Inhibitory activity against Beta-D-galactosidase of Aspergillus oryzae at 1 mM; No inhibition
[26] = system: Caldicellulosiruptor saccharolyticus; assay: Inhibitory activity against Beta-glucosidase of Caldocellum saccharolyticum at 1 mM; No inhibition
[27] = species: Gallus gallus; assay: Inhibitory activity against alpha-N-acetylgalactosaminidase of chicken liver at 1 mM; No inhibition
[28] = system: Beta-N-acetylglucosaminidase (Bos taurus); assay: Inhibitory activity against Beta-N-acetylglucosaminidase of bovine epididymis A at 1 mM; No inhibition
[29] = system: Beta-N-acetylglucosaminidase (Bos taurus); assay: Inhibitory activity against Beta-N-acetylglucosaminidase of bovine epididymis B at 1 mM; No inhibition

Sequence of Glucoamylase (Aspergillus niger) (P69328 whole entry): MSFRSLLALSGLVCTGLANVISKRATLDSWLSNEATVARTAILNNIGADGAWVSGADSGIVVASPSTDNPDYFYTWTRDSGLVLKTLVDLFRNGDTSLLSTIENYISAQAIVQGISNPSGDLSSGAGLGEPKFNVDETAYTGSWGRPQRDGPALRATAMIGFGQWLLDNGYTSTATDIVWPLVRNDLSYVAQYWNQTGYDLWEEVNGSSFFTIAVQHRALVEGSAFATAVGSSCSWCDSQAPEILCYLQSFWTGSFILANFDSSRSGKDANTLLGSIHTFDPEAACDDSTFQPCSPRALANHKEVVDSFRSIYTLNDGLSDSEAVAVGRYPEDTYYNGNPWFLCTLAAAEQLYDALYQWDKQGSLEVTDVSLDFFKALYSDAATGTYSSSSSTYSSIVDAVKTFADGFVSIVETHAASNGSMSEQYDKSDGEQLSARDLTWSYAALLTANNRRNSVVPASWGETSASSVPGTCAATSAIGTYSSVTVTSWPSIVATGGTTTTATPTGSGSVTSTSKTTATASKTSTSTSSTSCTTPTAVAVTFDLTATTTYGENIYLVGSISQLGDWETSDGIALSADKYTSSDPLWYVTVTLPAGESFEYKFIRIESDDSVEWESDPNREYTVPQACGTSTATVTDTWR
Sequence of Beta-galactosidase (Escherichia coli) (Q8VNN2 whole entry, looked up): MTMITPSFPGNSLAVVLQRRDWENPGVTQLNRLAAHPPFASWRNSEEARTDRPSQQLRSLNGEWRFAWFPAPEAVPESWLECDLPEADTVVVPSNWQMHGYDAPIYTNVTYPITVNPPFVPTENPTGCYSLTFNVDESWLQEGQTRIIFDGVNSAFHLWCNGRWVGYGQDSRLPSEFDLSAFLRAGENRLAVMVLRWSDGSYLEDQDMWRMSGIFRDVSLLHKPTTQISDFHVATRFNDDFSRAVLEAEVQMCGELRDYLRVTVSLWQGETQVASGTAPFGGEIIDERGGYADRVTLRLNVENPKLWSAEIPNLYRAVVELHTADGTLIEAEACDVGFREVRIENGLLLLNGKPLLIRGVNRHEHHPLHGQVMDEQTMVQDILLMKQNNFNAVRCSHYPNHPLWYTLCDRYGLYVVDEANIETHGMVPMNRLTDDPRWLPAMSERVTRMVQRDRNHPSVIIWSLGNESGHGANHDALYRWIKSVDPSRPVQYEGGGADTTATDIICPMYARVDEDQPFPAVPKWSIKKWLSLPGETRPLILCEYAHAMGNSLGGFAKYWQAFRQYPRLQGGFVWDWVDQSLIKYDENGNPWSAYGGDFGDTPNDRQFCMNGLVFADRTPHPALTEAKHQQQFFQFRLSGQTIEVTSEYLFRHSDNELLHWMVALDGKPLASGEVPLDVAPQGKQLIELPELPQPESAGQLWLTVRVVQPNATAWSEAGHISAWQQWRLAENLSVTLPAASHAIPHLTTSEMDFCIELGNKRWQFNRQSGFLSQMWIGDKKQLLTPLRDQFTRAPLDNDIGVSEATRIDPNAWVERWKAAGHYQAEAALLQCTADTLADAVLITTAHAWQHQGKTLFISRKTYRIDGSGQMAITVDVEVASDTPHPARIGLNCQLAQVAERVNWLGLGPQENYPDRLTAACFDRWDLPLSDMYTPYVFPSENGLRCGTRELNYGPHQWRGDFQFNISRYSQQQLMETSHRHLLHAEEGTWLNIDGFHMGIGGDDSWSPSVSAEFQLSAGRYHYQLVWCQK

**Q.** Which results are given for `Cc1oc(C2NCC(O)C2O)cc1C(=O)OC(C)C` (stereo not given)?
**A.** IC50 [1]: 250 µM; inhibition [2]: 78%; inhibition [3]: 57%; inhibition [4]: 27%; IC50 [5]: 640 µM; inhibition [6]: 57%; inhibition [7]: inactive; inhibition [8]: inactive; Ki [9]: 85 µM

**Q.** For `COC(=O)c1cc(C2NCC(O)C2O)oc1C` (stereo not given), which IC50 [10] is on record?
**A.** 150 µM

**Q.** And the inhibition [11]?
**A.** 88%

**Q.** And the Ki [12]?
**A.** 13.8 µM

**Q.** And the inhibition [2]?
**A.** 23%

**Q.** And the inhibition [3]?
**A.** 36%

**Q.** And the inhibition [4]?
**A.** 23%

**Q.** What about the IC50 [5] of the same compound?
**A.** 800 µM

**Q.** What about the inhibition [6] of the same compound?
**A.** 54%

**Q.** What about the inhibition [7] of the same compound?
**A.** No inhibition

**Q.** What about the inhibition [13] of the same compound?
**A.** No inhibition

**Q.** What about the inhibition [14] of the same compound?
**A.** No inhibition

**Q.** What about the inhibition [15] of the same compound?
**A.** No inhibition

**Q.** What about the inhibition [16] of the same compound?
**A.** 33%

**Q.** What about the inhibition [17] of the same compound?
**A.** 42%

**Q.** And the inhibition [18]?
**A.** No inhibition

**Q.** What about the inhibition [19] of the same compound?
**A.** inactive

**Q.** And the inhibition [20]?
**A.** No inhibition

**Q.** And the inhibition [21]?
**A.** No inhibition

**Q.** What about the inhibition [22] of the same compound?
**A.** No inhibition

**Q.** And the inhibition [23]?
**A.** No inhibition

**Q.** What about the inhibition [24] of the same compound?
**A.** inactive

**Q.** And the inhibition [25]?
**A.** No inhibition

**Q.** What about the inhibition [26] of the same compound?
**A.** No inhibition

**Q.** And the inhibition [27]?
**A.** No inhibition

**Q.** And the inhibition [28]?
**A.** inactive

**Q.** And the inhibition [29]?
**A.** inactive
